From patent publication US8530466B2, “Use of 2,4-pyrimidinediamines for the treatment of atherosclerosis” (Rigel Pharmaceuticals, Inc., priority 2008, dated 2013)

Assays:
Human mast cells (CHMC) [1] = experiment: Mast cell activation induced by FcγR cross-linking: degranulation (tryptase); type: cell-based; conditions: anti-IgG 1 μg/ml, 60-minute incubation
Protocol: Human mast cells were cultured and differentiated from CD38-negative progenitor cell as described in U.S. Patent Publication No. 2005-234049, incorporated herein by reference. For example, 65 μl of various concentrations of 6-(5-fluoro-2-(3,4,5-trimethoxyphenylamino) pyrimidin-4-ylamino)-2,2-dimethyl-2H-pyrido[3,2-b][1,4]oxazin-3(4H)-one (compound 1), prepared in MT (137 mM NaCl, 2.7 mM KCl, 1.8 mM CaCl2, 1.0 mM MgCl2, 5.6 mM Glucose, 20 mM Hepes (pH 7.4), 0.1% Bovine Serum Albumin, (Sigma A4503)) containing 2% MeOH and 1% DMSO, or control buffer were added to duplicate 96-well V-bottom plates. Pelleted and resuspended (in warm MT) CHMC cells (65 μl) were added to each 96-well plate, mixed and incubated for 1 hr at 37° C. […] After a 60-minute incubation at 37° C., cells and cell debris were pelleted by centrifugation at 1000 rpm for 10 min and tryptase and leukotriene C4 levels were measured.
To measure tryptase levels, 25 μl of supernatant from each well was transferred to a fresh 96-well black bottom plate, to which 100 μl of fresh tryptase substrate solution [(Z-Ala-Lys-Arg-AMC2TFA; Enzyme Systems Products, #AMC-246)] […] After 30 min incubation at room temperature, the optical density of the plates is measured at 355 nm/460 nm on a spectrophotometric plate reader. […]

Human mast cells (CHMC) [2] = experiment: Mast cell activation induced by FcγR cross-linking: LTC4 release (ELISA); type: cell-based; conditions: anti-IgG 1 μg/ml
Protocol: (§1) Human mast cells were cultured and differentiated from CD38-negative progenitor cell as described in U.S. Patent Publication No. 2005-234049, incorporated herein by reference. […] A80-105A3) final concentration 1 μg/ml, was added to the test wells. MT (25 μl) was added to control wells. After a 60-minute incubation at 37° C., cells and cell debris were pelleted by centrifugation at 1000 rpm for 10 min and tryptase and leukotriene C4 levels were measured. Leukotriene C4 (LTC4) levels were quantified using an ELISA kit on appropriately diluted supernatant samples following the supplier's instructions (Cayman Chemical Co., Cat No. 520211). Inhibition of release and/or synthesis of lipid mediators was assessed by measuring the release of LTC4 and inhibition of release and/or synthesis of cytokines was monitored by quantifying TNFα, IL-8, GM-CSF, IL-10 and IL-13. Cytokine (TNFα, IL-8, GM-CSF, IL-10, IL-13) production was measured 6-8 hrs post-IgG crosslinking. Leukotriene and cytokine levels were quantified using the following commercial ELISA kits: LTC4 (Cayman Chemical #520211), TNFα (Biosource #KHC3011), GM-CSF (Biosource #KHC0901), IL-10 (Biosource #KHC0122), and IL-13 (Biosource #KHC0132).

Human mast cells (CHMC) [3] = experiment: Mast cell activation induced by FcγR cross-linking: cytokine production (ELISA); type: cell-based; conditions: 6-8 hrs post-IgG crosslinking
Protocol: as §1, with “measured.” for “measured. Leukotriene C4 (LTC4) levels were quantified using an ELISA kit on appropriately diluted supernatant samples following the supplier's instructions (Cayman Chemical Co., Cat No. 520211).”

Platelets in PRP = experiment: CD62P surface expression by stimulated platelets (flow cytometry); type: cell-based, Human; conditions: 15 min at 37° C.
Protocol: Human peripheral blood, from healthy volunteers who had not taken any medication for at least 7 days, was drawn into Vacutainer-ACD tubes (Acid citrate dextrose (ACD) Solution Tubes, VWR Cat. No. VT4606). Platelet-rich plasma (PRP) and platelet-poor plasma (PPP) were prepared by differential centrifugation (200 g and >2500 g, respectively, 20 min, RT). Platelets in PRP were incubated for 10 min at 37° C. with test article-DMSO solutions that had been previously diluted in MT buffer (137 mM NaCl, 2.7 mM KCl, 1.8 mM CaCl2, 1.0 mM MgCl2, 5.6 mM glucose, 20 mM Hepes, 0.1% BSA; pH 7.4). The test articles included dimethyl Sulfoxide (DMSO) (Sigma-Aldrich, Cat No. D2650), wortmannin Penicillium funiculosum (Sigma-Aldrich, Cat No. W1628), and 6-(5-fluoro-2-(3,4,5-trimethoxyphenylamino)pyrimidin-4-ylamino)-2,2-dimethyl-2H-pyrido[3,2-b][1,4]oxazin-3(4H)-one (compound 1).
Cells were stimulated with collagen (Chronolog Corp. Cat. No. 385) at 20 μg/mL, adenosine 5′-diphosphate (ADP) (Sigma-Aldrich Cat. No. A2754) at 33 μM, or phorbol 12-Myristate 13-Acetate (PMA) (Sigma-Aldrich Cat. No. P8139) at 33 ng/mL, for 15 min at 37° C., then incubated with staining antibody (anti-CD62P PE) at RT in the dark for 20 min, and fixed with paraformaldehyde (Cytofix fixation buffer) in the dark for 30 min at RT. Finally, cells were washed with PBS containing 2% fetal bovine serum and stored at 4° C. in the dark prior to flow cytometry. Measurements were performed using a FACScalibur flow cytometer (BD Biosciences, San Jose, Calif., USA). CD62P expression was expressed as geometric mean fluorescence on the vertical axis.

**Q.** Which results are given for `COc1cc(Nc2ncc(F)c(Nc3ccc4c(n3)NC(=O)C(C)(C)O4)n2)cc(OC)c1OC` [Compound 1, 6-(5-fluoro-2-(3,4,5-trimethoxyphenylamino)pyrimidin-4-ylamino)-2,2-dimethyl-2H-pyrido[3,2-b][1,4]oxazin-3(4H)-one]?
**A.** EC50 (Human mast cells (CHMC) [1]; Homo sapiens, Mast cell, 1 h): 0.053 µM; EC50 (Human mast cells (CHMC) [1]; listed as lot B): 0.076 µM; EC50 (Human mast cells (CHMC) [2]; Homo sapiens, Mast cell): 0.036 µM; EC50 (Human mast cells (CHMC) [2]; listed as lot B): 0.047 µM; EC50 (Human mast cells (CHMC) [3]; listed as lot B, read-out: EC50 GMCSF): 0.067 µM; EC50 (Human mast cells (CHMC) [3]; listed as lot B, read-out: EC50 IL-8): 0.062 µM; EC50 (Human mast cells (CHMC) [3]; listed as lot B, read-out: EC50 IL-10): 0.148 µM; EC50 (Human mast cells (CHMC) [3]; listed as lot B, read-out: EC50 IL-13): 0.148 µM; EC50 (Human mast cells (CHMC) [3]; listed as lot B, read-out: EC50 TNFα): 0.12 µM; EC50 (Human mast cells (CHMC) [3]; Homo sapiens, Mast cell, read-out: EC50 GMCSF): 0.046 µM; EC50 (Human mast cells (CHMC) [3]; Homo sapiens, Mast cell, read-out: EC50 IL-8): 0.045 µM; EC50 (Human mast cells (CHMC) [3]; Homo sapiens, Mast cell, read-out: EC50 IL-10): 0.125 µM; EC50 (Human mast cells (CHMC) [3]; Homo sapiens, Mast cell, read-out: EC50 IL-13): 0.09 µM; CD62P surface upregulation in platelets induced by ADP (Platelets in PRP; ADP 33 μM): did not inhibit; CD62P surface upregulation in platelets induced by PMA (Platelets in PRP; PMA 33 ng/mL): did not inhibit; collagen receptor mediated platelet activation (CD62P surface expression) (Platelets in PRP; collagen 20 μg/mL): inhibited
